Data taken from patent US8158609B1, “Use of cyclodextrins as an active ingredient for treating dry AMD and solubilizing drusen” (Novartis AG, priority 2006, dated 2012).
“Also recorded” adds a separate entry of the source.

Tests used:
mouse brown fat tissue = assay: lipid histochemistry of fresh fat tissue, Oil Red O staining (positive control tissue); conditions: for dissolving of mouse fat tissue: 37° C., 24 hrs, compared with untreated fat tissue
Protocol: (§1) Unfixed, donor eye with AMD drusen was immersed in 30% sucrose in PBS buffer at pH 7.4 for 24 hours at 4° C. for cryoprotection, then embedded in OCT. For cryostat sections, the eye was serially sectioned at 8 μm thickness and stored at −70° C. Drusen were identified under the microscope. Unfixed fresh frozen mouse brown fat tissue was sectioned at 10 μm thickness as the positive control.
Hydroxypropyl β-cyclodextrin selected compound was titered to the best concentration by mouse fat tissue at 37° C. for 24 hrs (Table.2).
(§2) Unfixed frozen human eye drusens were considered closest to the in vivo state of drusen. Mouse brown fat was used for positive control.

[1] = system: lipid component of drusen; assay: lipid histochemistry of drusen in eyes with AMD, Oil Red O staining; set-up: species or system human; conditions: 40 ml of 25% solution, 37° C., 24 hrs
Protocol: as §1
(§3) A viable in vitro assay to evaluate compounds with a potential to remove drusen in the eye was explored. Sections with drusen were treated with cyclodextrin for 30 min, 1 hr, 2 hrs, 4 hrs, 15 hrs at room temperature. In a subsequent experiment, sections with drusen were immersed in 40 ml of 25% Hydroxypropyl β-cyclodextrin at 37° C. for 24 hrs.
as §2

drusen = assay: in vitro drusen removal assay, frozen drusen sections treated with cyclodextrin, H&E staining; set-up: species or system human
Protocol: as §1, §3, §2

Row | Substance | dissolving of fresh mouse fat tissue (mouse brown fat tissue; 25% solution) | dissolving of mouse fat tissue (mouse brown fat tissue; 25%-45% solution) | ORO staining of lipid-containing drusen / dissolving the lipid component of drusen [1] | size of a drusen, H&E 40× (FIG. 1C) (drusen; 25% solution, 2 hours) | change / dissolving of drusen by H&E staining (drusen; 40 ml, 25% (different concentration), 37° C., 24 hrs) | dissolving of mouse fat tissue (mouse brown fat tissue; 30% solution)
1 | Hydroxypropyl β-cyclodextrin | has efficacy in dissolving fresh mouse fat tissue | has effect on dissolving the partial fat tissue; also recorded: partial fat tissues were dissolved | stained negatively; also recorded: has efficacy in dissolving the lipid component of drusen | reduced size | no change; also recorded: could not completely dissolve drusen | –
2 | Sulfonyletherbutyl β-cyclodextrin | – | – | – | – | – | partial fat tissues were dissolved
